Experimental data reported in ChEMBL document CHEMBL1201862, “PubChem BioAssay data set” (2004).
The source made the active and inactive calls.

What was measured:
[1] = A Cell Based Secondary Assay To Explore Cytotoxicity of Compounds that Sensitize Mycobacterium Tuberculosis to Beta-Lactam Antibiotics.; assay type: functional
[2] = target: T1, Neuropeptides B/W receptor type 1 (Homo sapiens, UniProt P48145); assay: Fluorescence-based dose response cell-based high throughput screening assay to identify antagonists of the G-protein coupled receptor 7 (GPR7). [Related pubchem assays: 1952 (Screening assay (GPR7 antagonists).), 1880 (Summary AID.)]; assay type: functional
T1 sequence (P48145 whole entry): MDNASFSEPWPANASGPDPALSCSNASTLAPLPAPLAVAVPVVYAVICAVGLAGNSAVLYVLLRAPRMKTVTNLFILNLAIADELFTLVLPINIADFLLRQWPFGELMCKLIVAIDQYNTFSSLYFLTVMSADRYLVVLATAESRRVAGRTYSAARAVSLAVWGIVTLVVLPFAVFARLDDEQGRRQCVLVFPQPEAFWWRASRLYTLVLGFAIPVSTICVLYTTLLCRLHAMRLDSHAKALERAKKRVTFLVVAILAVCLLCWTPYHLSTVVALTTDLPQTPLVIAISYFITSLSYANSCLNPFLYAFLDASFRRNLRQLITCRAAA

[3] = target: Melanin-concentrating hormone receptor 1 (Homo sapiens, UniProt Q99705); assay: Fluorescence-based counterscreen for antagonists of the G-protein coupled receptor 7 (GPR7): cell-based high throughput dose response assay to identify antagonists of the melanin-concentrating hormone receptor 1 (MCHR1).; assay type: functional
Melanin-concentrating hormone receptor 1, sequence (Q99705 whole entry): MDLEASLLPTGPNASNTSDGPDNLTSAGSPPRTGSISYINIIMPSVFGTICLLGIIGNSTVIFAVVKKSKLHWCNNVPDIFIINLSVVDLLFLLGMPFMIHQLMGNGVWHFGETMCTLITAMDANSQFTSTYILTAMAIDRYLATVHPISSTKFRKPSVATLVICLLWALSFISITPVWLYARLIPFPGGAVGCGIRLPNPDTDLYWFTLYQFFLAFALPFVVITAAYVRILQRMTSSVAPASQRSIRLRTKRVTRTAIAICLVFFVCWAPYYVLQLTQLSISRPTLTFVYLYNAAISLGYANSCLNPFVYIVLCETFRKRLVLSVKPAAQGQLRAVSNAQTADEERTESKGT

[4] = target: Glucose-6-phosphate 1-dehydrogenase (Homo sapiens, UniProt P11413); assay: human G6PD enzyme inhibitors, dose response, selectivity assay for P. falciparum G6PD inhibitor project, biochemical, fluorescence (AID 504792); assay type: functional
Glucose-6-phosphate 1-dehydrogenase, sequence (P11413 whole entry): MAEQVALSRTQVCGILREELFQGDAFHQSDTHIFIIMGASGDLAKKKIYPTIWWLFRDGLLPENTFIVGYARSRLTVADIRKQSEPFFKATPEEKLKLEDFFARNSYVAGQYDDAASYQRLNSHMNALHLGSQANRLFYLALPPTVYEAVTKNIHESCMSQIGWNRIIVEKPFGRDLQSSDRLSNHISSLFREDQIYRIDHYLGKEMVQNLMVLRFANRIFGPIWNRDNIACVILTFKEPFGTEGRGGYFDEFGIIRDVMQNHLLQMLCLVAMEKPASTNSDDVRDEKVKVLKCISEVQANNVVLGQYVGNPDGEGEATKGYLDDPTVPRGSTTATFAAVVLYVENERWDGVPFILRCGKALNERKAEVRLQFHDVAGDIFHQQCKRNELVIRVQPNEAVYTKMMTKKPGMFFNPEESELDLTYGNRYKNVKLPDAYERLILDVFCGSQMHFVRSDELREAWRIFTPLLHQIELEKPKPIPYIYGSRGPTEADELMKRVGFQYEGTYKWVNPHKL

[5] = Luminescence Cell-Based Dose Retest to Confirm Inhibitors of Cancer Stem Cells. [Related pubchem assays (depositor defined):AID2717, AID2721]; assay type: functional; settings: Homo sapiens
Genome polyprotein = Genome polyprotein (dengue virus type 2, UniProt P29990); assay: Dengue-2 NS5 methyltransferase inhibitors, primary screen, biochemical, confirmation dose response (AID 588689); assay type: functional
Genome polyprotein, sequence (P29990 2492-3391 limits assumed): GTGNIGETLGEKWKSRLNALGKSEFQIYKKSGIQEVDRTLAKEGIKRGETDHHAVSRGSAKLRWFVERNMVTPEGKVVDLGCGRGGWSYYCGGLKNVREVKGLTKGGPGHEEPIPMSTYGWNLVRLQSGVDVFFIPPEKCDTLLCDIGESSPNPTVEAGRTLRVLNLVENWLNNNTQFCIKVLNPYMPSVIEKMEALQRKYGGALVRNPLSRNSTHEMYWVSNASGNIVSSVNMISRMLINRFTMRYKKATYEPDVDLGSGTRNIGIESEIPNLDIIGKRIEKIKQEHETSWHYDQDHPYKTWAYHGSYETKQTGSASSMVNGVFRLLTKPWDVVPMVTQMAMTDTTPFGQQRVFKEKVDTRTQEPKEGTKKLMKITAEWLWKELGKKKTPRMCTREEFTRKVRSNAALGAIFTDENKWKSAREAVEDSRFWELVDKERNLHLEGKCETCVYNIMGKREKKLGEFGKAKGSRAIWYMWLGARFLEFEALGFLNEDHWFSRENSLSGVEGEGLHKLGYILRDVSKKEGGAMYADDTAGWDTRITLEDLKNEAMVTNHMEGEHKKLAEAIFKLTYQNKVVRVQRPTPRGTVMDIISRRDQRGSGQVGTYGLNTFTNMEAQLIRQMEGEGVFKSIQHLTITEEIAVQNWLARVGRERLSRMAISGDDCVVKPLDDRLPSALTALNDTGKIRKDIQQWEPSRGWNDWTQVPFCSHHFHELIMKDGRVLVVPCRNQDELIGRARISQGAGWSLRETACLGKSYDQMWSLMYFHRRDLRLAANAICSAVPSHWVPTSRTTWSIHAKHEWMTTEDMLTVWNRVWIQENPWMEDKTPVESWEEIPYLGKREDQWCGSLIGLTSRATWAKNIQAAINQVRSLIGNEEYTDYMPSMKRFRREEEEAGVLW

[6] = target: T2, Long-chain-fatty-acid--AMP ligase FadD28 (Mycobacterium tuberculosis, UniProt P9WQ59); assay: Fluorescence polarization aasay to screen for inhibitors that compete for the binding of FadD28 to a bisubstrate Measured in Biochemical System Using Plate Reader - 2147-01_Inhibitor_Dose_CherryPick_Activity.; assay type: functional, Mycobacterium tuberculosis H37Rv
T2 sequence (P9WQ59 whole entry): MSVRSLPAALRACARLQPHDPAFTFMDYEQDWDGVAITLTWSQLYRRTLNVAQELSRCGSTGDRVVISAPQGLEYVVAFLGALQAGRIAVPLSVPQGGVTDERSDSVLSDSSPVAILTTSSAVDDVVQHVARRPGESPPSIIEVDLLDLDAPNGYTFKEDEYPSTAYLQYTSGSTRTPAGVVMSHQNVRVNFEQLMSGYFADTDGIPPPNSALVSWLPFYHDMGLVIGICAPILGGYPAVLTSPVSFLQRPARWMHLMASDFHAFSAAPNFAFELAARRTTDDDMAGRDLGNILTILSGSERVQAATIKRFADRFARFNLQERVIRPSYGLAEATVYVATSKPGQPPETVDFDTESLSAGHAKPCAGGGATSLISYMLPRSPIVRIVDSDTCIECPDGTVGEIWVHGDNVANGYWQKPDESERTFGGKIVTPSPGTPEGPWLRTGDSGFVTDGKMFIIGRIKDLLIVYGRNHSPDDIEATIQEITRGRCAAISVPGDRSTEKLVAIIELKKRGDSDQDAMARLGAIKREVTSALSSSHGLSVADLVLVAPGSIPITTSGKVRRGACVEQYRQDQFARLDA

Protein Wnt-3a = Protein Wnt-3a (Mus musculus, UniProt P27467); assay: Wnt3a-driven reporter signaling inhibition, dose response, selectivity assay for Gli-SUFU antagonist project, Wnt-LIGHT cells, luminescence (AID 651570); assay type: functional; settings: read-out: IC50_Mean;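 also: Wnt-LIGHT reporter cells stimulated with conditioned medium from Wnt3a-producing cells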
Protein Wnt-3a, sequence (P27467 whole entry): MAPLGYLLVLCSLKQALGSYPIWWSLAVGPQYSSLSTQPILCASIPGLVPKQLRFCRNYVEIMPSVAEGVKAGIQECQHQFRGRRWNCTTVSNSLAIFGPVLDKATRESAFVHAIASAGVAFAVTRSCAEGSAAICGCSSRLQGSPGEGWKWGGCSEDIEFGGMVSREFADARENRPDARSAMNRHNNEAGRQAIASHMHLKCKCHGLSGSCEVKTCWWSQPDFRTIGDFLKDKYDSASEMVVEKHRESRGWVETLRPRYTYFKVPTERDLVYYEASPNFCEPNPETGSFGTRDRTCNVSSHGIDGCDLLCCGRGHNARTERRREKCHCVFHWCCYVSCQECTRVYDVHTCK

Nonstructural protein 1 = Nonstructural protein 1 (Influenza A virus, UniProt Q194T2); assay type: functional, Influenza A virus (A/California/07/2009(H1N1))
Nonstructural protein 1, sequence (Q194T2 whole entry): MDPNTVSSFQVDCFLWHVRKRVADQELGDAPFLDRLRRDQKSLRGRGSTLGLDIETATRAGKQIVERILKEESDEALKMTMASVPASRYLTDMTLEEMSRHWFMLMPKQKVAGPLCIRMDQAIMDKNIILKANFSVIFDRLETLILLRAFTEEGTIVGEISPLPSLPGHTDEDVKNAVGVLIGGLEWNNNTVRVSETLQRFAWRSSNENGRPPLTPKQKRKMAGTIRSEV

[7] = target: Ras and Rab interactor 1/Tyrosine-protein kinase ABL1 (Homo sapiens, UniProt P00519+Q13671); assay type: functional;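 also: biochemical TR-FRET dose-response test measuring inhibition of binding between Rin1 and Abl proteins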
Ras and Rab interactor 1/Tyrosine-protein kinase ABL1, sequence (P00519 whole entry): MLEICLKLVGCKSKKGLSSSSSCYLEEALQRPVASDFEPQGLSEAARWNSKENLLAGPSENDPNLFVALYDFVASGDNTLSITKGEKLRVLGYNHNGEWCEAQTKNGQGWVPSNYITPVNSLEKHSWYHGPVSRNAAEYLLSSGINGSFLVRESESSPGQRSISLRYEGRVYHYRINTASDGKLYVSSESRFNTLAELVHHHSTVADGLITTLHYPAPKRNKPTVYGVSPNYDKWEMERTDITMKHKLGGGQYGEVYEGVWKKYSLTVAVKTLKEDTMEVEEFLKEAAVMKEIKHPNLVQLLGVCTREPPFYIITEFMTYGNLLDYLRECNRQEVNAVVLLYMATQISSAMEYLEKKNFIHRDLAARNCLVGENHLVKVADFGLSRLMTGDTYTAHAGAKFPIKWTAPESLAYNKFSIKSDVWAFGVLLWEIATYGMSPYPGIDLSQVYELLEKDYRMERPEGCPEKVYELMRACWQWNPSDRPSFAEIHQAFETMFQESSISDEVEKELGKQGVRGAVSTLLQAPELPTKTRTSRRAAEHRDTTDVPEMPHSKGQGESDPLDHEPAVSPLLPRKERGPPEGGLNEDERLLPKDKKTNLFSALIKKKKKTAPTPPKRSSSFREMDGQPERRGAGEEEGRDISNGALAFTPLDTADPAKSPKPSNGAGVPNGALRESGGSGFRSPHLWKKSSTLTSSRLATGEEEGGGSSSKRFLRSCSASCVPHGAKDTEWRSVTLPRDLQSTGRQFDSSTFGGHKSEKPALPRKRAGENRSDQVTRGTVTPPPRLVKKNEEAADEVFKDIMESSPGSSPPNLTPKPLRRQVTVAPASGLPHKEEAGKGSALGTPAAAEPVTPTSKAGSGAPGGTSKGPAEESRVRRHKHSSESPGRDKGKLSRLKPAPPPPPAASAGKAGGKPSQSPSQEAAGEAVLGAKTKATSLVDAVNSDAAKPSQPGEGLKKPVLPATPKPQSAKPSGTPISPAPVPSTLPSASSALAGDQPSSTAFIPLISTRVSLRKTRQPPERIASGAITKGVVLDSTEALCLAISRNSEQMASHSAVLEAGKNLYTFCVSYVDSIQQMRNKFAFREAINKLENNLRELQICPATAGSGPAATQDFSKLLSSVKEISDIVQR
Ras and Rab interactor 1/Tyrosine-protein kinase ABL1, sequence (Q13671 whole entry): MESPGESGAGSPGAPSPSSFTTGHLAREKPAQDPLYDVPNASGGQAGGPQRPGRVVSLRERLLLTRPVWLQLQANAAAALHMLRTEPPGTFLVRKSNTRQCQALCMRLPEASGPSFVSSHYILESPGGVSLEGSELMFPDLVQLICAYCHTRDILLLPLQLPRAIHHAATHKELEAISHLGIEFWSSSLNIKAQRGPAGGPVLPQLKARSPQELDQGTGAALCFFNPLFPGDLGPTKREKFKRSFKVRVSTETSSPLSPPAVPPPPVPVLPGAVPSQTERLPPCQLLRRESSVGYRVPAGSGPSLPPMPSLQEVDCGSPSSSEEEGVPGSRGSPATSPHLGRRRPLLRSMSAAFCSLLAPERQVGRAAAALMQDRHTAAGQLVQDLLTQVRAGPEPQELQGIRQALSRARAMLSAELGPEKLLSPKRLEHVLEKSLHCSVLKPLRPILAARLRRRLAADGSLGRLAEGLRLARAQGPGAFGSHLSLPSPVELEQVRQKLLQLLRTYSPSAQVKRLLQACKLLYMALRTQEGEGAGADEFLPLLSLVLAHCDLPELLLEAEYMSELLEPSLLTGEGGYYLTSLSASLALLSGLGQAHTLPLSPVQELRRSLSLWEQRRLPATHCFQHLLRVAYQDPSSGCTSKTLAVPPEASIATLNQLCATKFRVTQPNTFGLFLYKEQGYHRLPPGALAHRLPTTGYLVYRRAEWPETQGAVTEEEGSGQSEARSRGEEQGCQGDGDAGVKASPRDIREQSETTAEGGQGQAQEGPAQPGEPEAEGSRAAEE

[8] = A cytotoxicity screen of small molecule inhibitors of the PhoP region in Salmonella typhi identified in the primary screen. [Related pubchem assays: 1850, 1864, 1985 ]; assay type: functional
[9] = inhibitors of HIV Env-driven cell fusion, dose response, cherry-pick (AID 652057); assay type: functional, cell-based
[10] = CEM21 lymphoblast cell cytotoxicity, dose response, cytotoxicity control for viral fusion inhibitor project, CellTiter-Glo luminescence, cherry-picked (AID 652042); assay type: functional, cell-based;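 also: potency for signal decrease meaning cytotoxicity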
[11] = ZM109 Env clade C HIV-1 fusion inhibitors, dose response, HeLa effector, CEM target cells, luciferase, cherry-pick (AID 652058); assay type: functional, cell-based
[12] = off-target signal loss in HeLa-CEM21 co-culture – HeLa F-luc CTL cells, cherry-picked, counter-screen for HIV-1 Env fusion inhibitor project, dose response (AID 652040); assay type: functional, cell-based;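 also: potency for signal decrease marking cytotoxic or nonspecific inhibition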
[13] = inhibitors of clade B AD8 Env fusion, dose response, cell-based, cherry-pick (AID 652062); assay type: functional;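 also: luciferase signal from cell-cell fusion driven by HIV-1 clade B AD8 Env; potency is for inhibitors of fusion seen as a drop in luminescence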
[14] = target: T3, Polyadenylate-binding protein 1 (Homo sapiens, UniProt P11940); assay: PABP1 MLLE–PAM2 interaction inhibitors, dose response, miRNA deadenylation inhibitor project, biochemical, fluorescence polarization, Cy5-PAM2 peptide, secondary (AID 602260); assay type: functional; settings: read-out: IC50_Mean
T3 sequence (P11940 whole entry): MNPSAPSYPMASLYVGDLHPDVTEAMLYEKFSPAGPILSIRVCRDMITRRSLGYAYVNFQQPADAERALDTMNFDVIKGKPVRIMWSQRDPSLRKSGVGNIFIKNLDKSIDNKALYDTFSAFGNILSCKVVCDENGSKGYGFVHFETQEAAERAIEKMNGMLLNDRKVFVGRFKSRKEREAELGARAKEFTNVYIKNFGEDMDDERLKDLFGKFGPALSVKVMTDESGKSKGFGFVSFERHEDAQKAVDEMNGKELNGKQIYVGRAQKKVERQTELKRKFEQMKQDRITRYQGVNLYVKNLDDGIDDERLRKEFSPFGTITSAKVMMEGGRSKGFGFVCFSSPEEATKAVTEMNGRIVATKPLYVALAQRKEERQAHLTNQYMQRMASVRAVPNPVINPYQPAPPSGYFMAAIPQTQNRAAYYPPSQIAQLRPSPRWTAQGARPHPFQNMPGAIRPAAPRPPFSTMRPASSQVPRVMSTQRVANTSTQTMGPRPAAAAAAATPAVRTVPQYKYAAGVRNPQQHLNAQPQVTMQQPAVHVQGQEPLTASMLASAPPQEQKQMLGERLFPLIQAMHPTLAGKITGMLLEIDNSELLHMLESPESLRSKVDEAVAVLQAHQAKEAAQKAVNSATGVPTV

[15] = target: T3, Polyadenylate-binding protein 1; assay: PABP1 MLLE–PAM2 binding inhibitor potency, dose response, biochemical, fluorescence polarization, FITC-PAM2 peptide (AID 602259); assay type: functional; settings: read-out: IC50_Mean

## N=C(NC(=O)c1ccccc1NC(=O)c1ccccc1)Nc1nc2ccccc2o1
[1]
  CC50: > 40 µM (active)

## CCCCn1c(N)c(N(CC(C)C)C(=O)c2ccc(COc3ccccc3)o2)c(=O)[nH]c1=O
[2]
  IC50: > 43.8 µM (not active)
[3]
  IC50: > 43.8 µM (not active)

## CCC1(CC)Cc2ccccc2C(N)=C1C#N
[1]
  CC50: > 40 µM (active)
[4]
  IC50: > 80 µM (inactive)

## C=CCc1cc(Cl)ccc1OCCCNC(C)CC (centres undefined)
[1]
  CC50: > 40 µM (active)

## O=C1NN(c2cccc(Br)c2)C(=O)/C1=C\c1ccccc1
[5]
  AC50: 3.04 µM (active)
Genome polyprotein
  IC50: 35.1 µM (active)
[6]
  AC50: > 100 µM (inactive)

## Cc1ccc(NCC(=O)Nc2cccc(S(=O)(=O)N(C)C)c2)cc1S(=O)(=O)N1CCCCCC1
Protein Wnt-3a
  IC50: 8.18 µM (active)

## O=C(NN1C(=O)/C(=C/c2nc3ccccc3[nH]2)SC1=S)c1ccccc1
Nonstructural protein 1
  IC50: > 100 µM (active)
[6]
  AC50: 70.5 µM (active)

## CCCCC(c1nnnn1C1CCCC1)N1CCN(C2CCCCC2)CC1 (centres undefined)
[2]
  IC50: > 43.8 µM (not active)
[3]
  IC50: > 43.8 µM (not active)

## Cc1ccc(C(=O)N2CCN3C(=O)c4ccccc4C23c2ccc(Cl)cc2)cc1 (centres undefined)
Protein Wnt-3a
  IC50: 10.3 µM (active)

## CCN(CC)C(=O)c1ccc(NC(=O)c2cc(S(=O)(=O)N3CCCCCC3)ccc2OC)cc1
[7]
  IC50: 618 nM (active)

## Cc1ccnc(NC(=O)CCC(=O)N(CC(=O)NC2CCCCC2)C2CCCC2)c1
[8]
  EC50: > 50 µM (active)

## CCN(CC(=O)Nc1cccc(C#N)c1)CC(=O)Nc1cccc(OC)c1
[2]
  IC50: > 43.8 µM (not active)
[3]
  IC50: 27.9 µM (not active)

## Cc1nc(Nc2nc(O)cc(CSc3nc4ccccc4[nH]3)n2)nc2ccccc12
[5]
  AC50: 3.58 µM (active)
[9]
  AC50: 6.8 µM (active)
[10]
  AC50: 11.2 µM (active)
[11]
  AC50: 7.51 µM (active)
[12]
  AC50: 8.15 µM (active)
[13]
  AC50: 10.3 µM (active)

## Nc1c(-c2ccccc2)sc2ccc3ccccc3[n+]12
[8]
  EC50: > 50 µM (active)
[14]
  IC50: > 66 µM (inactive)
[15]
  IC50: > 66 µM (inactive)

## Cc1ncc(CCl)c2c1OC(C)(C)OC2
[1]
  CC50: > 40 µM (active)
